Measured values as given in patent publication US7015221B2, “2,4-disubstituted triazine derivatives” (Janssen Pharmaceutica, N.V., priority 1998, dated 2006).

Assays:
[1] = Cytotoxicity in mock-infected MT-4 cells (MTT); format: cell-based; conditions: human, concentration reducing absorbance of mock-infected MT-4 control by 50%

Structure (SMILES)	CC50 [1]	melting point
Cc1cc(C)c(Oc2ncnc(Nc3ccc(C#N)cc3)n2)c(C)c1 [Compound 2, 4-[[4-(2,4,6-trimethylphenoxy)-1,3,5-triazin-2-yl]amino]benzonitrile]	> 100 µM	
Cc1cc(C)c(Sc2ncnc(Nc3ccc(C#N)cc3)n2)c(C)c1 [Compound 4, 4-[[4-[(2,4,6-trimethylphenyl)thio]-1,3,5-triazin-2-yl]amino]benzonitrile]	> 100 µM	
CC(C)c1cc(Br)c(Nc2ncnc(Nc3ccc(C#N)cc3)n2)c(Br)c1 [Compound 8, 4-[[4-[[2,6-dibromo-4-(1-methylethyl)phenyl]amino]-1,3,5-triazin-2-yl]amino]benzonitrile]		245 to 247 °C
